# In patent US20240415819A1, “MACROCYCLIC COMPOUNDS AS PROTEASOME SUBUNIT BETA TYPE-5 INHIBITORS” (Lead Discovery Center GmbH, priority 2021, published 2024):
# Tests used:
# [1] = target: T1, β5 subunit of the human constitutive proteasome (CPS) (Homo sapiens, UniProt P28074); test: β5 inhibition assay, human constitutive proteasome (Suc-LLVY-AMC); format: biochemical; settings: IC50 class, Suc-LLVY-AMC substrate
# T1 construct: purchased Boston Biochem E-360
# Procedure: The enzymatic activity of the β5 subunit of the human constitutive proteasome (CPS) is analyzed. In another assay, which differs from the assay of the human constitutive proteasome only in using the human immunoproteasome (IPS) the enzymatic activity of the β5 subunit of the human immunoproteasome (IPS) is analyzed. […] Inhibition is indicated as IC50 [nM] (“-”=not measured).
# HT-29 cells = test: CellTiter-Glo luminescent cell viability assay with HT-29 cells (72h incubation); format: cell-based, human; settings: Homo sapiens, HT-29, HT29 cells, read-out: CTG HT29
# In short: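 400 cells per well in DMEM/10% FCS were dosed after 24 h and kept 72 h at 37 °C, 5% CO2. ATP-based luminescence (CellTiter-Glo) normalized to DMSO and 10 μM staurosporine controls; IC50 by dose-response fit.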
# [2] = test system: A549 (human lung carcinoma cell line); test: Glo assay of A549 cells (Table 3; ProteasomeGlo plating scheme); format: cell-based; settings: Homo sapiens; A549 cells; read-out: PGLo A549
# In short: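 After acoustic compound transfer, plates incubate 105 min (37° C., 5% CO2). Proteasome-Glo reagent containing Suc-LLVY-Glo substrate is added, plates are shaken, then luminescence is measured after 10-15 min to derive IC50 [nM]. Staurosporine and DMSO serve as controls.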
SMILES,IC50 [1] [nM],IC50 (HT-29 cells) [nM],IC50 [2] [nM]
"Cc1ccc2cc1CNC(=O)[C@H](CCc1ccccc1)NC(=O)[C@@H](NC(=O)c1ccccc1)CC(=O)N1CCCC(CCO2)C1 (stereo partly drawn) [Compound 26, N-((9S,12S)-5^4-methyl-8,11,14-trioxo-9-phenethyl-4-oxa-7,10-diaza-1(3,1)-piperidina-5(1,3)-benzenacyclotetradecaphane-12-yl)benzamide]",< 100,< 100,< 100
"Cc1ccc2cc1CNC(=O)[C@H](CCc1ccccc1)NC(=O)[C@@H](N1C(=O)CCC1=O)CC(=O)N1CCCC(CCO2)C1 (stereo partly drawn) [Compound 43, (9S,12S)-12-(2,5-dioxopyrrolidin-1-yl)-5^4-methyl-9-phenethyl-4-oxa-7,10-diaza-1(3,1)-piperidina-5(1,3)-benzenacyclotetradecaphane-8,11,14-trione]",< 100,< 100,100 to 500
"COc1cccc(CC(=O)N[C@H]2CC(=O)N3CCCC(CCOc4ccc(C)c(c4)CNC(=O)[C@H](CCc4ccccc4)NC2=O)C3)c1 (stereo partly drawn) [Compound 85, 2-(3-methoxyphenyl)-N-((9S,12S)-5^4-methyl-8,11,14-trioxo-9-phenethyl-4-oxa-7,10-diaza-1(3,1)-piperidina-5(1,3)-benzenacyclotetradecaphane-12-yl)acetamide]",< 100,< 100,< 100
"Cc1ccc2cc1CNC(=O)[C@H](CCc1ccccc1)NC(=O)[C@@H](NC(=O)c1cc3cc(C(F)(F)F)ccc3n1C)CC(=O)N1CCCC(CCO2)C1 (stereo partly drawn) [Compound 87, 1-methyl-N-((9S,12S)-5^4-methyl-8,11,14-trioxo-9-phenethyl-4-oxa-7,10-diaza-1(3,1)-piperidina-5(1,3)-benzenacyclotetradecaphane-12-yl)-5-(trifluoromethyl)-1H-indole-2-carboxamide]",< 100,< 100,< 100
"Cc1ccc2cc1CNC(=O)C(CCc1cccnc1)NC(=O)CCC(=O)N1CCCC(CCO2)C1 (stereo not drawn) [Compound 51, 5^4-methyl-9-(2-(pyridin-3-yl)ethyl)-4-oxa-7,10-diaza-1(3,1)-piperidina-5(1,3)-benzenacyclotetradecaphane-8,11,14-trione]",< 100,1000 to 5000,100 to 500
"CO[C@@H](C(=O)N[C@H]1CC(=O)N2CCCC(CCOc3ccc(C)c(c3)CNC(=O)[C@H](CCc3ccccc3)NC1=O)C2)c1ccccc1 (stereo partly drawn) [Compound 86, (2R)-2-methoxy-N-((9S,12S)-5^4-methyl-8,11,14-trioxo-9-phenethyl-4-oxa-7,10-diaza-1(3,1)-piperidina-5(1,3)-benzenacyclotetradecaphane-12-yl)-2-phenylacetamide]",< 100,< 100,< 100
"Cc1ccc2cc1CNC(=O)[C@H](CCc1ccccc1)NC(=O)[C@@H](NC(=O)C1(F)CCNCC1)CC(=O)N1CCCC(CCO2)C1 (stereo partly drawn) [Compound 134, 4-fluoro-N-((9S,12S)-5^4-methyl-8,11,14-trioxo-9-phenethyl-4-oxa-7,10-diaza-1(3,1)-piperidina-5(1,3)-benzenacyclotetradecaphane-12-yl)piperidine-4-carboxamide]",< 100,< 100,< 100
"Cc1ccc2cc1CNC(=O)[C@H](CCc1ccccc1)NC(=O)[C@@H](NC(=O)Cc1ccc(N)cc1)CC(=O)N1CCCC(CCO2)C1 (stereo partly drawn) [Compound 128, 2-(4-aminophenyl)-N-((9S,12S)-5^4-methyl-8,11,14-trioxo-9-phenethyl-4-oxa-7,10-diaza-1(3,1)-piperidina-5(1,3)-benzenacyclotetradecaphane-12-yl)acetamide]",< 100,< 100,< 100
"Cc1ccc2cc1CNC(=O)[C@H](CCc1ccccc1)NC(=O)[C@@H](NC(=O)[C@H](C)c1ccccc1)CC(=O)N1CCCC(CCO2)C1 (stereo partly drawn) [Compound 80, (2R)-N-((9S,12S)-5^4-methyl-8,11,14-trioxo-9-phenethyl-4-oxa-7,10-diaza-1(3,1)-piperidina-5(1,3)-benzenacyclotetradecaphane-12-yl)-2-phenylpropanamide]",< 100,< 100,< 100
"Cc1ccc2cc1CNC(=O)[C@H](Cc1ccccc1)NC(=O)CCC(=O)N1CCCC(CCO2)C1 (stereo partly drawn) [Compound 79, (9S)-9-benzyl-5^4-methyl-4-oxa-7,10-diaza-1(3,1)-piperidina-5(1,3)-benzenacyclotetradecaphane-8,11,14-trione]",100 to 500,1000 to 5000,1000 to 5000
"CNCC(=O)N[C@H]1CC(=O)N2CCCC(CCOc3ccc(C)c(c3)CNC(=O)[C@H](CCc3ccccc3)NC1=O)C2 (stereo partly drawn) [Compound 129, N-((9S,12S)-5^4-methyl-8,11,14-trioxo-9-phenethyl-4-oxa-7,10-diaza-1(3,1)-piperidina-5(1,3)-benzenacyclotetradecaphane-12-yl)-2-(methylamino)acetamide]",< 100,< 100,< 100
"Cc1ccc2cc1CNC(=O)[C@H](CCc1ccccc1)NC(=O)[C@@H](NC(=O)c1ccccn1)CC(=O)N1CCCC(CCO2)C1 (stereo partly drawn) [Compound 40, N-((9S,12S)-5^4-methyl-8,11,14-trioxo-9-phenethyl-4-oxa-7,10-diaza-1(3,1)-piperidina-5(1,3)-benzenacyclotetradecaphane-12-yl)picolinamide]",< 100,< 100,< 100
"Cc1ccc2cc1CNC(=O)[C@H](CCc1ccccc1)NC(=O)CCC(=O)N1CCCC(CCO2)C1 (stereo partly drawn) [Compound 13, (9S)-5^4-methyl-9-phenethyl-4-oxa-7,10-diaza-1(3,1)-piperidina-5(1,3)-benzenacyclotetradecaphane-8,11,14-trione]",< 100,500 to 1000,500 to 1000
"Cc1ccc2cc1CNC(=O)[C@H](CCc1ccccc1)NC(=O)[C@@H](NS(C)(=O)=O)CC(=O)N1CCCC(CCO2)C1 (stereo partly drawn) [Compound 37, N-((9S,12S)-5^4-methyl-8,11,14-trioxo-9-phenethyl-4-oxa-7,10-diaza-1(3,1)-piperidina-5(1,3)-benzenacyclotetradecaphane-12-yl)methanesulfonamide]",< 100,< 100,< 100

# Continued, values first:
IC50 [1] [nM],IC50 (HT-29 cells) [nM],IC50 [2] [nM],SMILES
1000 to 5000,100 to 500,> 5000,"Cc1ccc2cc1CNC(=O)[C@@H](CCc1ccccc1)NC(=O)[C@H](NC(=O)OCc1ccccc1)CC(=O)N1CCC[C@H](CCO2)C1 [Compound 290, benzyl ((13R,9R,12R)-5^4-methyl-8,11,14-trioxo-9-phenethyl-4-oxa-7,10-diaza-1(3,1)-piperidina-5(1,3)-benzenacyclotetradecaphane-12-yl)carbamate]"
< 100,< 100,< 100,Cc1ccc2cc1CNC(=O)[C@H](CCc1ccccc1)NC(=O)[C@@H](NC(=O)CCc1ccccc1-c1ccccc1)CC(=O)N1CCCC(CCO2)C1 (stereo partly drawn) [Compound 177]
< 100,< 100,< 100,"CC(=O)N[C@H]1CC(=O)N2CCCC(CCOc3ccc(F)c(c3)CNC(=O)[C@H](CCc3ccccc3)NC1=O)C2 (stereo partly drawn) [Compound 205, N-((9S,12S)-5^4-fluoro-8,11,14-trioxo-9-phenethyl-4-oxa-7,10-diaza-1(3,1)-piperidina-5(1,3)-benzenacyclotetradecaphane-12-yl)acetamide]"
< 100,< 100,< 100,"C=CS(=O)(=O)N[C@H]1CC(=O)N2CCCC(CCOc3ccc(C)c(c3)CNC(=O)[C@H](CCc3ccccc3)NC1=O)C2 (stereo partly drawn) [Compound 180, N-((9S,12S)-5^4-methyl-8,11,14-trioxo-9-phenethyl-4-oxa-7,10-diaza-1(3,1)-piperidina-5(1,3)-benzenacyclotetradecaphane-12-yl)ethenesulfonamide]"
< 100,100 to 500,< 100,"CC(=O)N[C@H]1CC(=O)N2CCCC(CCOc3ccc(C)c(c3)CNC(=O)C(c3cnn(CCCC(=O)O)c3)NC1=O)C2 (stereo partly drawn) [Compound 568, 4-(4-((12S)-12-acetamido-5^4-methyl-8,11,14-trioxo-4-oxa-7,10-diaza-1(3,1)-piperidina-5(1,3)-benzenacyclotetradecaphane-9-yl)-1H-pyrazol-1-yl)butanoic acid]"
< 100,< 100,< 100,"Cc1ccc2cc1CNC(=O)[C@H](CCc1ccccc1)NC(=O)[C@@H](NC(=O)C1CC(F)(F)CN1)CC(=O)N1CCCC(CCO2)C1 (stereo partly drawn) [Compound 135, (2S)-4,4-difluoro-N-((9S,12S)-5^4-methyl-8,11,14-trioxo-9-phenethyl-4-oxa-7,10-diaza-1(3,1)-piperidina-5(1,3)-benzenacyclotetradecaphane-12-yl)pyrrolidine-2-carboxamide]"
< 100,< 100,< 100,"Cc1ccc2cc1CNC(=O)[C@H](CCc1ccccc1)NC(=O)[C@@H](NC(=O)C1CCNCC1(F)F)CC(=O)N1CCCC(CCO2)C1 (stereo partly drawn) [Compound 152, 3,3-difluoro-N-((9S,12S)-5^4-methyl-8,11,14-trioxo-9-phenethyl-4-oxa-7,10-diaza-1(3,1)-piperidina-5(1,3)-benzenacyclotetradecaphane-12-yl)piperidine-4-carboxamide]"
100 to 500,100 to 500,500 to 1000,"CC(=O)N[C@H]1CCC(=O)NCCCCOc2ccc(C)c(c2)CNC(=O)[C@H](CCc2ccccc2)NC1=O [Compound 171, N-((11S,14S)-1^4-methyl-8,12,15-trioxo-14-phenethyl-2-oxa-7,13,16-triaza-1(1,3)-benzenacycloheptadecaphane-11-yl)acetamide]"
